# “Also recorded” adds a separate entry of the source.
# How the values were obtained:
# [1] = test system: PBMCs recovered from patients treated with TroVax; experiment: IFNγ ELISPOT with PBMCs from TroVax treated patients; assay type: cell-based, human; conditions: for IFNγ ELISPOT response with A2 blocking antibody (clone BB7.2) / A2 restriction: presence of A2 blocking antibody; for Responding patient ID (positive IFNγ ELISpot response to class II 20 mer peptide): 5 μg/ml, following, not before, TroVax vaccination
# [2] = test system: PBMCs recovered from TroVax treated patients; assay type: cell-based, human; conditions: for most likely HLA restriction: from HLA-type frequency among responding patients; for HLA-type distribution among positive proliferative responses: DQ2: responding patients with HLA type DQ2 / all responding patients; for HLA-type distribution among positive proliferative responses: DQ2 / HLA-type distribution among positive proliferative responses: DQ4 / HLA-type distribution among positive proliferative responses: DQ5 / HLA-type distribution among positive proliferative responses: DQ6 / HLA-type distribution among positive proliferative responses: DQ7 / HLA-type distribution among positive proliferative responses: DQ8 / HLA-type distribution among positive proliferative responses: DQ9 / HLA-type distribution among positive proliferative responses: DR1 / HLA-type distribution among positive proliferative responses: DR4 / HLA-type distribution among positive proliferative responses: DR7 / HLA-type distribution among positive proliferative responses: DR8 / HLA-type distribution among positive proliferative responses: DR9 / HLA-type distribution among positive proliferative responses: DR11 / HLA-type distribution among positive proliferative responses: DR13 / HLA-type distribution among positive proliferative responses: DR15 / HLA-type distribution among positive proliferative responses: DR17 / HLA-type distribution among positive proliferative responses: DR51 / HLA-type distribution among positive proliferative responses: DR52 / HLA-type distribution among positive proliferative responses: DR53: PBMCs from TroVax treated patients; for HLA-type distribution among positive proliferative responses: DQ4: responding patients with HLA type DQ4 / all responding patients; for HLA-type distribution among positive proliferative responses: DQ5: responding patients with HLA type DQ5 / all responding patients; for HLA-type distribution among positive proliferative responses: DQ6: responding patients with HLA type DQ6 / all responding patients; for HLA-type distribution among positive proliferative responses: DQ7: responding patients with HLA type DQ7 / all responding patients; for HLA-type distribution among positive proliferative responses: DQ8: responding patients with HLA type DQ8 / all responding patients; for HLA-type distribution among positive proliferative responses: DQ9: responding patients with HLA type DQ9 / all responding patients; for HLA-type distribution among positive proliferative responses: DR1: responding patients with HLA type DR1 / all responding patients; for HLA-type distribution among positive proliferative responses: DR4: responding patients with HLA type DR4 / all responding patients; for HLA-type distribution among positive proliferative responses: DR7: responding patients with HLA type DR7 / all responding patients; for HLA-type distribution among positive proliferative responses: DR8: responding patients with HLA type DR8 / all responding patients; for HLA-type distribution among positive proliferative responses: DR9: responding patients with HLA type DR9 / all responding patients; for HLA-type distribution among positive proliferative responses: DR11: responding patients with HLA type DR11 / all responding patients; for HLA-type distribution among positive proliferative responses: DR13: responding patients with HLA type DR13 / all responding patients; for HLA-type distribution among positive proliferative responses: DR15: responding patients with HLA type DR15 / all responding patients; for HLA-type distribution among positive proliferative responses: DR17: responding patients with HLA type DR17 / all responding patients; for HLA-type distribution among positive proliferative responses: DR51: responding patients with HLA type DR51 / all responding patients; for HLA-type distribution among positive proliferative responses: DR52: responding patients with HLA type DR52 / all responding patients; for HLA-type distribution among positive proliferative responses: DR53: responding patients with HLA type DR53 / all responding patients
# [3] = target: MHC class I allele A*0101 (A1) (Homo sapiens, UniProt P04439, A114D/A174V/A182V/D101N/D185E/E176A/E190D/L180R/Q94H/R68K/S129P/T187R/V100A/V91M/W191G); experiment: iTopia peptide binding assay, A*0101; conditions: percent of positive control peptide binding; peptide at 1.11×10^−5M
# Method in brief: (§1)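 iTopia plates coated with the respective MHC class I allele; 9-mer peptides bound at 1.11×10^−5M under standardized optimal conditions alongside an allele-specific control peptide at the same concentration. Total fluorescence read after antibody removal, in duplicate; binding given as percent of positive control peptide binding.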
# [4] = target: MHC class I allele A*0201 (A2) (Homo sapiens, UniProt P04439, D140Y/D185E/D98H/E176V/E277Q/G131W/G231S/I119V/I121R/I166T/I218V/L300P/L318F/N151K/N90K/P208A/P217A/Q86G/Q94H/R138H/R169H/T345S); experiment: iTopia peptide binding assay, A*0201; conditions: percent of positive control peptide binding; peptide at 1.11×10^−5M
# Method in brief: as §1
# [5] = target: MHC class I allele A*0301 (A3) (Homo sapiens, UniProt P04439); experiment: iTopia peptide binding assay, A*0301; conditions: percent of positive control peptide binding; peptide at 1.11×10^−5M
# Method in brief: as §1
# [6] = target: MHC class I allele B*0702 (B7) (Homo sapiens, UniProt P01889); experiment: iTopia peptide binding assay, B*0702; conditions: percent of positive control peptide binding; peptide at 1.11×10^−5M
# Method in brief: as §1
# [7] = 10 mer vs 9 mer experiment, absence of A2 blocking antibody, FIG. 14
# [8] = PBMCs of patient TV2-018, X+6 wk and X+10 wk, FIG. 11-13
# [9] = positive proliferative responses
sequence,measurement,setting,value
NLTEVPTDLP [10 mer peptide 41],IFNγ ELISPOT response,[1]; [7],no response
RLARLALVLL [10 mer peptide 9],IFNγ ELISPOT response,[1]; [7],response
same,IFNγ ELISPOT response,[1]; [8],capable of inducing an ex-vivo IFNγ response
same,IFNγ ELISPOT response with A2 blocking antibody (clone BB7.2) / A2 restriction,[1],A2 restricted
NLFLTGNQLA [10 mer peptide 48],IFNγ ELISPOT response,[1]; [7],no response
LTCAYPEKMRNRVLLELNSA [Peptide 41.2],Responding patient ID (positive IFNγ ELISpot response to class II 20 mer peptide),[1],TV2-002; also recorded: TV2-005; also recorded: TV2-012; also recorded: TV2-015; also recorded: TV2-016
same,most likely HLA restriction,[2],"DQ6, DR51, or DR15"
same,responders with HLA type DQ6 out of all responders,[2]; [9],9 out of 13
same,responders with HLA type DR15 out of all responders,[2]; [9],6 out of 13
same,responders with HLA type DR51 out of all responders,[2]; [9],7 out of 13
same,HLA-type distribution among positive proliferative responses: DQ2,[2],5/13
same,HLA-type distribution among positive proliferative responses: DQ4,[2],0/13
same,HLA-type distribution among positive proliferative responses: DQ5,[2],5/13
same,HLA-type distribution among positive proliferative responses: DQ6,[2],9/13
same,HLA-type distribution among positive proliferative responses: DQ7,[2],3/13
same,HLA-type distribution among positive proliferative responses: DQ8,[2],0/13
same,HLA-type distribution among positive proliferative responses: DQ9,[2],0/13
same,HLA-type distribution among positive proliferative responses: DR1,[2],3/13
same,HLA-type distribution among positive proliferative responses: DR4,[2],1/13
same,HLA-type distribution among positive proliferative responses: DR7,[2],3/13
same,HLA-type distribution among positive proliferative responses: DR8,[2],0/13
same,HLA-type distribution among positive proliferative responses: DR9,[2],0/13
same,HLA-type distribution among positive proliferative responses: DR11,[2],3/13
same,HLA-type distribution among positive proliferative responses: DR13,[2],2/13
same,HLA-type distribution among positive proliferative responses: DR15,[2],6/13
same,HLA-type distribution among positive proliferative responses: DR17,[2],2/13
same,HLA-type distribution among positive proliferative responses: DR51,[2],7/13
same,HLA-type distribution among positive proliferative responses: DR52,[2],5/13
same,HLA-type distribution among positive proliferative responses: DR53,[2],4/13
MVTWLKETEVVQGKDRLTCA [Peptide 39.2],Responding patient ID (positive IFNγ ELISpot response to class II 20 mer peptide),[1],TV2-104; also recorded: TV2-110; also recorded: TV2-005; also recorded: TV2-012; also recorded: TV2-102; also recorded: TV2-103
same,most likely HLA restriction,[2],"DQ6, DR51, or DR52"
same,responders with HLA type DQ6 out of all responders,[2]; [9],6 out of 10
same,responders with HLA type DR51 out of all responders,[2]; [9],5 out of 10
same,responders with HLA type DR52 out of all responders,[2]; [9],5 out of 10
same,HLA-type distribution among positive proliferative responses: DQ2,[2],4/10
same,HLA-type distribution among positive proliferative responses: DQ4,[2],0/10
same,HLA-type distribution among positive proliferative responses: DQ5,[2],3/10
same,HLA-type distribution among positive proliferative responses: DQ6,[2],6/10
same,HLA-type distribution among positive proliferative responses: DQ7,[2],2/10
same,HLA-type distribution among positive proliferative responses: DQ8,[2],0/10
same,HLA-type distribution among positive proliferative responses: DQ9,[2],0/10
same,HLA-type distribution among positive proliferative responses: DR1,[2],2/10
same,HLA-type distribution among positive proliferative responses: DR4,[2],1/10
same,HLA-type distribution among positive proliferative responses: DR7,[2],2/10
same,HLA-type distribution among positive proliferative responses: DR8,[2],0/10
same,HLA-type distribution among positive proliferative responses: DR9,[2],0/10
same,HLA-type distribution among positive proliferative responses: DR11,[2],2/10
same,HLA-type distribution among positive proliferative responses: DR13,[2],2/10
same,HLA-type distribution among positive proliferative responses: DR15,[2],4/10
same,HLA-type distribution among positive proliferative responses: DR17,[2],2/10
same,HLA-type distribution among positive proliferative responses: DR51,[2],5/10
same,HLA-type distribution among positive proliferative responses: DR52,[2],5/10
same,HLA-type distribution among positive proliferative responses: DR53,[2],3/10
TGNQLAVLPA [10 mer peptide 50],IFNγ ELISPOT response,[1]; [7],no response
FLTGNQLAVL [10 mer peptide 49],IFNγ ELISPOT response,[1]; [7],response
same,IFNγ ELISPOT response,[1]; [8],capable of inducing an ex-vivo IFNγ response
same,IFNγ ELISPOT response with A2 blocking antibody (clone BB7.2) / A2 restriction,[1],A2 restricted
MPGGCSRGPA [10 mer peptide 1],IFNγ ELISPOT response,[1]; [7],no response
RLRLARLALV [10 mer peptide 8],IFNγ ELISPOT response,[1]; [7],response
same,IFNγ ELISPOT response,[1]; [8],capable of inducing an ex-vivo IFNγ response
YHYRYEINA [Peptide 200],"Peptide binding, MHC Class I Molecule A*0101",[3],0 % of control
same,"Peptide binding, MHC Class I Molecule A*0201",[4],7 % of control
same,"Peptide binding, MHC Class I Molecule A*0301",[5],1 % of control
same,"Peptide binding, MHC Class I Molecule B*0702",[6],5 % of control
NIRDACRDHM [10 mer peptide 194],IFNγ ELISPOT response,[1]; [8],capable of inducing an ex-vivo IFNγ response
IVPPEDERQ [Peptide 92],"Peptide binding, MHC Class I Molecule A*0101",[3],6 % of control
same,"Peptide binding, MHC Class I Molecule A*0201",[4],12 % of control
same,"Peptide binding, MHC Class I Molecule A*0301",[5],3 % of control
same,"Peptide binding, MHC Class I Molecule B*0702",[6],3 % of control
QCPALCECS [Peptide 31],"Peptide binding, MHC Class I Molecule A*0101",[3],3 % of control
same,"Peptide binding, MHC Class I Molecule A*0201",[4],2 % of control
same,"Peptide binding, MHC Class I Molecule A*0301",[5],0 % of control
same,"Peptide binding, MHC Class I Molecule B*0702",[6],0 % of control
AGRALQGLR [Peptide 103],"Peptide binding, MHC Class I Molecule A*0101",[3],0 % of control
same,"Peptide binding, MHC Class I Molecule A*0201",[4],2 % of control
same,"Peptide binding, MHC Class I Molecule A*0301",[5],2 % of control
same,"Peptide binding, MHC Class I Molecule B*0702",[6],1 % of control
AFSGSNASV [Peptide 81],"Peptide binding, MHC Class I Molecule A*0101",[3],2 % of control
same,"Peptide binding, MHC Class I Molecule A*0201",[4],55 % of control
same,"Peptide binding, MHC Class I Molecule A*0301",[5],2 % of control
same,"Peptide binding, MHC Class I Molecule B*0702",[6],14 % of control
LNSADLDCD [Peptide 169],"Peptide binding, MHC Class I Molecule A*0101",[3],0 % of control
same,"Peptide binding, MHC Class I Molecule A*0201",[4],0 % of control
same,"Peptide binding, MHC Class I Molecule A*0301",[5],3 % of control
same,"Peptide binding, MHC Class I Molecule B*0702",[6],0 % of control
PAAGDGRLR [Peptide 5],"Peptide binding, MHC Class I Molecule A*0101",[3],4 % of control
same,"Peptide binding, MHC Class I Molecule A*0201",[4],5 % of control
same,"Peptide binding, MHC Class I Molecule A*0301",[5],4 % of control
same,"Peptide binding, MHC Class I Molecule B*0702",[6],5 % of control
RQLDLSHNP [Peptide 73],"Peptide binding, MHC Class I Molecule A*0101",[3],2 % of control
same,"Peptide binding, MHC Class I Molecule A*0201",[4],8 % of control
same,"Peptide binding, MHC Class I Molecule A*0301",[5],2 % of control
same,"Peptide binding, MHC Class I Molecule B*0702",[6],4 % of control
QPPLPDQCP [Peptide 28],"Peptide binding, MHC Class I Molecule A*0101",[3],6 % of control
same,"Peptide binding, MHC Class I Molecule A*0201",[4],5 % of control
same,"Peptide binding, MHC Class I Molecule A*0301",[5],1 % of control
same,"Peptide binding, MHC Class I Molecule B*0702",[6],3 % of control
DPILPPSLQ [Peptide 173],"Peptide binding, MHC Class I Molecule A*0101",[3],0 % of control
same,"Peptide binding, MHC Class I Molecule A*0201",[4],7 % of control
same,"Peptide binding, MHC Class I Molecule A*0301",[5],4 % of control
same,"Peptide binding, MHC Class I Molecule B*0702",[6],0 % of control
ARLALVLLGW [10 mer peptide 10],IFNγ ELISPOT response,[1]; [7],no response

# Reference: patent publication US8147838B2, “Peptide” (priority 2005, dated 2012)
